The source made the active and inactive calls. No cut-off for these calls is given here.
Assays:
Ovis aries [1] = species on record: Ovis aries; test: Inhibition of sheep brain dynamin 1 at 100 uM by malachite green GTPase assay
[2] = Inhibition of sheep brain dynamin 1 by malachite green GTPase assay; parameters: species or system Ovis aries
Dynamin-1 = molecular target: T1, Dynamin-1 (Rattus norvegicus, UniProt P21575); test: Inhibition of dynamin 1-mediated synaptic vesicle endocytosis in Sprague-Dawley rat synaptosomes assessed as uptake of FM 4-64 dye after 30 mins by automated acquisition and analysis system; format: subcellular, Brain
T1 sequence (P21575 whole entry): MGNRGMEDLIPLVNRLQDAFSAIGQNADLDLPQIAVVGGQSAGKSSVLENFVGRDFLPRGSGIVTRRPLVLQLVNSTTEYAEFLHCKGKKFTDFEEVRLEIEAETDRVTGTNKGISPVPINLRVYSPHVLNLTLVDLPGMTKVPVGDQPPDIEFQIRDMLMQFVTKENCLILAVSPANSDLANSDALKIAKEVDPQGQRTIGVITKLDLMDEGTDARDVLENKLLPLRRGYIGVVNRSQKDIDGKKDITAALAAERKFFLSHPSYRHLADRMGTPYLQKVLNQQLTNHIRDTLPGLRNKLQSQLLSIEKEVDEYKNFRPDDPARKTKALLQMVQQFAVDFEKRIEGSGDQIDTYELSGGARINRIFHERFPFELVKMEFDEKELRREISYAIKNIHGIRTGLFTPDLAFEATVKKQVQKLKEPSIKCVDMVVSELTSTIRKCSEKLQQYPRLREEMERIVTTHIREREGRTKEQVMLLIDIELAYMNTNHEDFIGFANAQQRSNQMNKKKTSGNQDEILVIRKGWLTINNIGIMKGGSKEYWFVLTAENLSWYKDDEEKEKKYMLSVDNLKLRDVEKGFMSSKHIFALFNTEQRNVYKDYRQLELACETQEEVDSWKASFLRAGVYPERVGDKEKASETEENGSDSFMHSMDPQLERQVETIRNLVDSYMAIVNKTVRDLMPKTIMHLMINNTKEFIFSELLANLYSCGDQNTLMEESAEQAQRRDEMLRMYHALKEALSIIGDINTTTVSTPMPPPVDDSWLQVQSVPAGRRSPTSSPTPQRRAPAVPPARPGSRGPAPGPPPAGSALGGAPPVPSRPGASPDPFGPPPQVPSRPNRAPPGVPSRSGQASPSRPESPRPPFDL

U2OS = test: Cytotoxicity against human U2OS cells assessed as change in cell morphology after 30 mins; format: cell-based; conditions: 0.5 h
Ovis aries [3] = species on record: Ovis aries; test: Inhibition of sheep brain dynamin 1 at 300 uM by malachite green GTPase assay

N=c1oc2ccccc2cc1C(=O)NCCCCCNC(=O)c1cc2ccccc2oc1=N
inhibition (Ovis aries [1]): < 50% | IC50 [2]: > 300 µM

N=c1oc2cc(O)c(O)cc2cc1C(=O)NCCCCNC(=O)c1cc2cc(O)c(O)cc2oc1=N
IC50 [2]: 3.2 µM

N#C/C(=C\c1ccc(C2(C(F)(F)F)N=N2)cc1)C(=O)NCCCNC(=O)/C(C#N)=C/c1ccc(O)c(O)c1
IC50 [2]: 36 µM

N=c1oc2c(O)c(O)ccc2cc1C(=O)NCCCCCCNC(=O)c1cc2ccc(O)c(O)c2oc1=N
IC50 [2]: 70 µM

N=c1oc2c(O)cccc2cc1C(=O)NCCCCNC(=O)c1cc2cccc(O)c2oc1=N
inhibition (Ovis aries [1]): < 50%

COc1ccc(/C=C(\C#N)C(=O)NCCCNC(=O)/C(C#N)=C/c2ccc(O)c(O)c2)cc1OC
IC50 [2]: 44 µM

N=c1oc2cc(O)c(O)cc2cc1C(=O)NCCNC(=O)c1cc2cc(O)c(O)cc2oc1=N
IC50 [2]: 6 µM

N=c1oc2c(O)c(O)ccc2cc1C(=O)NCCCCCNC(=O)c1cc2ccc(O)c(O)c2oc1=N
IC50 [2]: 19 µM

N=c1oc2ccccc2cc1C(=O)NCCCCCCNC(=O)c1cc2ccccc2oc1=N
inhibition (Ovis aries [1]): < 50% | IC50 [2]: > 300 µM

N=c1oc2cc(O)ccc2cc1C(=O)NCCCCCNC(=O)c1cc2ccc(O)cc2oc1=N
inhibition (Ovis aries [1]): < 50%

N=c1oc2c(O)c(O)ccc2cc1C(=O)NCCNC(=O)c1cc2ccc(O)c(O)c2oc1=N
IC50 (Dynamin-1): Not Active | IC50 [2]: 0.33 µM

N=c1oc2c(O)cccc2cc1C(=O)NCCCNC(=O)c1cc2cccc(O)c2oc1=N
Activity (U2OS): Non-toxic | IC50 (Dynamin-1): Not Active | IC50 [2]: 36.6 µM

N=c1oc2c(O)cccc2cc1C(=O)NCCCCCNC(=O)c1cc2cccc(O)c2oc1=N
inhibition (Ovis aries [1]): < 50%

N#C/C(=C\c1ccc(O)cc1)C(=O)NCCCNC(=O)/C(C#N)=C/c1ccc(O)c(O)c1
IC50 [2]: 51 µM

N=c1oc2ccccc2cc1C(=O)NCCCNC(=O)c1cc2ccccc2oc1=N
inhibition (Ovis aries [1]): < 50% | IC50 [2]: > 300 µM

N=c1oc2cc(O)c(O)cc2cc1C(=O)NCCCNC(=O)c1cc2cc(O)c(O)cc2oc1=N
Activity (U2OS): Non-toxic | IC50 (Dynamin-1; read-out: IC50): 40.4 µM | IC50 [2]: 0.26 µM

N#C/C(=C\c1ccc(O)c(O)c1)C(=O)NCCCNC(=O)/C(C#N)=C/c1ccc(O)c(O)c1
IC50 [2]: 1.7 µM

N=c1oc2c(O)cccc2cc1C(=O)NCCNC(=O)c1cc2cccc(O)c2oc1=N
inhibition (Ovis aries [1]): < 50%

N=c1oc2ccccc2cc1C(=O)NCCNC(=O)c1cc2ccccc2oc1=N
inhibition (Ovis aries [1]): < 50% | IC50 [2]: > 300 µM

N=c1oc2cc(O)ccc2cc1C(=O)NCCCNC(=O)c1cc2ccc(O)cc2oc1=N
IC50 (Dynamin-1; read-out: IC50): 66.1 µM | IC50 [2]: 17.3 µM

N#C/C(=C\c1ccc(N=[N+]=[N-])cc1)C(=O)NCCCNC(=O)/C(C#N)=C/c1ccc(O)c(O)c1
IC50 [2]: 6.4 µM

N=c1oc2c(O)c(O)ccc2cc1C(=O)NCCCNC(=O)c1cc2ccc(O)c(O)c2oc1=N
Activity (U2OS): Non-toxic | IC50 (Dynamin-1; read-out: IC50): 99.5 µM | IC50 [2]: 0.45 µM

N=c1oc2cc(O)ccc2cc1C(=O)NCCCCNC(=O)c1cc2ccc(O)cc2oc1=N
inhibition (Ovis aries [1]): < 50%

N=c1oc2c(O)c(O)ccc2cc1C(=O)NCCCCNC(=O)c1cc2ccc(O)c(O)c2oc1=N
IC50 [2]: 4.3 µM

N=c1oc2cc(O)ccc2cc1C(=O)NCCNC(=O)c1cc2ccc(O)cc2oc1=N
inhibition (Ovis aries [3]): inactive | IC50 [2]: 100 µM

N=c1oc2ccccc2cc1C(=O)NCCCCNC(=O)c1cc2ccccc2oc1=N
inhibition (Ovis aries [1]): < 50% | IC50 [2]: > 300 µM

N=c1oc2cc(O)c(O)cc2cc1C(=O)NCCCCCCNC(=O)c1cc2cc(O)c(O)cc2oc1=N
IC50 [2]: 82 µM

N=c1oc2cc(O)ccc2cc1C(=O)NCCCCCCNC(=O)c1cc2ccc(O)cc2oc1=N
inhibition (Ovis aries [1]): < 50%

N#C/C(=C\c1ccccc1)C(=O)NCCCNC(=O)/C(C#N)=C/c1ccc(O)c(O)c1
IC50 [2]: 146 µM

N=c1oc2c(O)cccc2cc1C(=O)NCCCCCCNC(=O)c1cc2cccc(O)c2oc1=N
inhibition (Ovis aries [1]): < 50%

N=c1oc2cc(O)c(O)cc2cc1C(=O)NCCCCCNC(=O)c1cc2cc(O)c(O)cc2oc1=N
IC50 [2]: 17 µM

— ChEMBL document CHEMBL1157798, “Iminochromene inhibitors of dynamins I and II GTPase activity and endocytosis” (J Med Chem, 2010)
